What all share (format): functional
Assay [1] concerns Staphylococcus aureus. In words: Antibacterial activity against methicillin-resistant Staphylococcus aureus MF535.
Assay [2] concerns Enterococcus faecium. As to the kind of experiment: Antibacterial activity against Enterococcus faecium ATCC 19434.
Assay [3] has as its system Enterococcus faecium. As to the kind of experiment: Antibacterial activity against vancomycin-resistant Enterococcus faecium VRA.
Assay [4] relates to Staphylococcus aureus. In words: Antibacterial activity against methicillin-susceptible Staphylococcus aureus 209P.

Values after ≈ are worked out from the molar mass of the structure shown.

One may read the MIC as the lowest concentration that inhibits growth of the organism. Low readings indicate a more susceptible organism, high ones a less susceptible organism.

`CC(=O)NCCc1c(C(c2cccc(Br)c2)c2c(O)c3ccccc3oc2=O)[nH]c2ccccc12` (stereo not drawn): the minimal inhibitory concentration (MIC) against Staphylococcus aureus [1], against Enterococcus faecium [2], against Enterococcus faecium [3] and against Staphylococcus aureus [4] was above 128 µg/mL in each case.

Turning to `O=C(OCCc1c(C(c2ccccc2)c2c(O)c3ccccc3oc2=O)[nH]c2ccccc12)c1ccccc1` (stereo not drawn), the minimum inhibitory concentration (MIC) with Staphylococcus aureus [1] stood at 8 µg/mL (≈ 15.5 µM); against Enterococcus faecium [2] it was 16 µg/mL (≈ 31 µM); in the assay with Enterococcus faecium [3], 16 µg/mL (≈ 31 µM); in the assay with Staphylococcus aureus [4] it was 8 µg/mL (≈ 15.5 µM).

As to `COc1ccccc1C(=O)OCCc1c(C(c2cccc(Br)c2)c2c(O)cc(C)oc2=O)[nH]c2ccccc12` (stereo not drawn), the MIC amounted to 64 µg/mL (≈ 109 µM) against Staphylococcus aureus [1], 64 µg/mL (≈ 109 µM) in the assay with Enterococcus faecium [2], 64 µg/mL (≈ 109 µM) in the assay with Enterococcus faecium [3] and 32 µg/mL (≈ 54.4 µM) in the assay on Staphylococcus aureus [4].

Take `COc1ccc(C(c2[nH]c3ccccc3c2CCOC(=O)c2ccccc2)c2c(O)c3ccccc3oc2=O)cc1` (stereo not drawn): the MIC against Staphylococcus aureus [1] came to 8 µg/mL (≈ 14.7 µM); in the assay with Enterococcus faecium [2] it was 16 µg/mL (≈ 29.3 µM); against Enterococcus faecium [3], 16 µg/mL (≈ 29.3 µM); with Staphylococcus aureus [4], 8 µg/mL (≈ 14.7 µM).

With `Cn1c(=O)c(C(c2ccc(C(F)(F)F)cc2)c2[nH]c3ccccc3c2CCNS(=O)(=O)c2ccccc2)c(O)c2ccccc21` (stereo not drawn), the minimal inhibitory concentration (MIC) is 1 µg/mL (≈ 1.58 µM) in the assay with Staphylococcus aureus [1], 4 µg/mL (≈ 6.33 µM) against Enterococcus faecium [2], 2 µg/mL (≈ 3.17 µM) against Enterococcus faecium [3] and 1 µg/mL (≈ 1.58 µM) against Staphylococcus aureus [4].

Take `O=C(OCCc1c(C(c2ccc(OC(F)(F)F)cc2)c2c(O)c3ccccc3oc2=O)[nH]c2ccccc12)c1ccccc1` (stereo not drawn): the minimum inhibitory concentration (MIC) in the assay on Staphylococcus aureus [1] was found to be 2 µg/mL (≈ 3.34 µM); against Enterococcus faecium [2] it was 0.5 µg/mL (≈ 0.834 µM); against Enterococcus faecium [3], 0.5 µg/mL (≈ 0.834 µM); against Staphylococcus aureus [4], 2 µg/mL (≈ 3.34 µM).

For `COc1ccccc1C(=O)OCCc1c(C(c2cncc(Br)c2)c2c(O)c3ccccc3oc2=O)[nH]c2ccccc12` (stereo not drawn), the MIC against Staphylococcus aureus [1] stood at 128 µg/mL (≈ 205 µM); with Enterococcus faecium [2], 128 µg/mL (≈ 205 µM); with Enterococcus faecium [3], 128 µg/mL (≈ 205 µM); in the assay with Staphylococcus aureus [4], 64 µg/mL (≈ 102 µM).

For `CC(=O)NCCc1c(C(c2cccc(Br)c2)c2c(O)c3ccccc3n(C)c2=O)[nH]c2ccccc12` (stereo not drawn), the MIC in the assay with Staphylococcus aureus [1] was 32 µg/mL (≈ 58.8 µM); against Enterococcus faecium [2], above 128 µg/mL; in the assay with Enterococcus faecium [3], above 128 µg/mL; with Staphylococcus aureus [4], 32 µg/mL (≈ 58.8 µM).

Regarding `COc1ccccc1C(=O)OCCc1c(C(c2cccc(Br)c2)c2c(O)c3ccccc3n(C)c2=O)[nH]c2ccccc12` (stereo not drawn), the MIC in the assay with Staphylococcus aureus [1], against Enterococcus faecium [2], against Enterococcus faecium [3] and in the assay on Staphylococcus aureus [4] was above 128 µg/mL throughout.

For the compound `O=C(OCCc1c(C(c2cccc(C(F)(F)F)c2)c2c(O)c3ccccc3oc2=O)[nH]c2ccccc12)c1ccccc1` (stereo not drawn), the minimum inhibitory concentration (MIC) in the assay with Staphylococcus aureus [1] was found to be 4 µg/mL (≈ 6.85 µM); in the assay on Enterococcus faecium [2], 2 µg/mL (≈ 3.43 µM); in the assay on Enterococcus faecium [3] it was 1 µg/mL (≈ 1.71 µM); in the assay on Staphylococcus aureus [4] it was 4 µg/mL (≈ 6.85 µM).

In the case of `CSc1ccc(C(c2[nH]c3ccccc3c2CCOC(=O)c2ccccc2)c2c(O)c3ccccc3oc2=O)cc1` (stereo not drawn), the minimum inhibitory concentration (MIC) in the assay on Staphylococcus aureus [1] came out at 8 µg/mL (≈ 14.2 µM); in the assay on Enterococcus faecium [2], 4 µg/mL (≈ 7.12 µM); with Enterococcus faecium [3] it was 4 µg/mL (≈ 7.12 µM); against Staphylococcus aureus [4], 4 µg/mL (≈ 7.12 µM).

For `Cc1ccc(C(c2[nH]c3ccccc3c2CCOC(=O)c2ccccc2)c2c(O)c3ccccc3oc2=O)cc1` (stereo not drawn), the MIC came to 4 µg/mL (≈ 7.55 µM) against Staphylococcus aureus [1], 8 µg/mL (≈ 15.1 µM) against Enterococcus faecium [2], 8 µg/mL (≈ 15.1 µM) against Enterococcus faecium [3] and 4 µg/mL (≈ 7.55 µM) against Staphylococcus aureus [4].

`Cn1c(=O)c(C(c2cccc(Br)c2)c2[nH]c3ccccc3c2CCOC(=O)c2ccccc2)c(O)c2ccccc21` (stereo not drawn): the MIC against Staphylococcus aureus [1] is 2 µg/mL (≈ 3.29 µM); against Enterococcus faecium [2], above 128 µg/mL; against Enterococcus faecium [3], above 128 µg/mL; with Staphylococcus aureus [4], 1 µg/mL (≈ 1.65 µM).

On to `Cn1c(=O)c(C(c2cccc(Br)c2)c2[nH]c3ccccc3c2CCOC(=O)Cc2ccccc2)c(O)c2ccccc21` (stereo not drawn), for which the MIC in the assay on Staphylococcus aureus [1] was above 128 µg/mL; in the assay on Enterococcus faecium [2], above 128 µg/mL; against Enterococcus faecium [3], above 128 µg/mL; with Staphylococcus aureus [4], 64 µg/mL (≈ 103 µM).

`O=C(OCCc1c(C(c2cccc(F)c2)c2c(O)c3ccccc3oc2=O)[nH]c2ccccc12)c1ccccc1` (stereo not drawn): the MIC against Staphylococcus aureus [1] is 8 µg/mL (≈ 15 µM); against Enterococcus faecium [2], 8 µg/mL (≈ 15 µM); against Enterococcus faecium [3], 8 µg/mL (≈ 15 µM); with Staphylococcus aureus [4] it was 4 µg/mL (≈ 7.5 µM).

For `Cc1cccc(C(c2[nH]c3ccccc3c2CCOC(=O)c2ccccc2)c2c(O)c3ccccc3oc2=O)c1` (stereo not drawn), the MIC was determined as 8 µg/mL (≈ 15.1 µM) with Staphylococcus aureus [1], 8 µg/mL (≈ 15.1 µM) against Enterococcus faecium [2], 4 µg/mL (≈ 7.55 µM) with Enterococcus faecium [3] and 8 µg/mL (≈ 15.1 µM) with Staphylococcus aureus [4].

For the compound `O=C(OCCc1c(C(c2ccc(Br)cc2)c2c(O)c3ccccc3oc2=O)[nH]c2ccccc12)c1ccccc1` (stereo not drawn), the MIC in the assay on Staphylococcus aureus [1], in the assay on Enterococcus faecium [2], in the assay with Enterococcus faecium [3] and against Staphylococcus aureus [4] was 2 µg/mL (≈ 3.36 µM) in each case.

The record behind these values is ChEMBL document CHEMBL1146387, “A new class of anti-MRSA and anti-VRE agents: preparation and antibacterial activities of indole-containing compounds” (2007).
